# Source: patent publication US9826761B2, “Compositions and methods for mitigating dietary sulfur in animals” (SarTec Corporation, priority 2008, dated 2017)
# Test: Titration of approx. 200 mM sulfide in 24 hour old rumen fluid with 1 M MnCl2, BaCl2 or CaCl2, silver/sulfide electrode
# Design: species or system Holstein cows
# Description: 24 hour old undiluted rumen fluid from rumen fistulated Holstein cows was obtained. 4 ml of Na2S in water (approximately 1 M) was added to 16 ml of the rumen fluid. The final concentration of sulfide ion in the rumen fluid was approximately 200 mM. […] The progress of the reaction was followed using the same silver/sulfide electrode set-up described above (Orion, Ion Plus Silver/Sulfide 9616BNWP).
smiles,measurement,setting,value
[Ba+2].[Cl-].[Cl-] [BaCl2],mVolts,"Volume 0.0 of 1.0M BaCl2, ~200 mM sulfide",942.6 mVolts
same,mVolts,"Volume 0.3 of 1.0M BaCl2, ~200 mM sulfide",943.7 mVolts
same,mVolts,"Volume 0.4 of 1.0M BaCl2, ~200 mM sulfide",943.3 mVolts
same,mVolts,"Volume 0.6 of 1.0M BaCl2, ~200 mM sulfide",942.7 mVolts
same,mVolts,"Volume 0.8 of 1.0M BaCl2, ~200 mM sulfide",941.3 mVolts
same,mVolts,"Volume 1.0 of 1.0M BaCl2, ~200 mM sulfide",927.0 mVolts
same,mVolts,"Volume 1.2 of 1.0M BaCl2, ~200 mM sulfide",925.6 mVolts
same,mVolts,"Volume 1.4 of 1.0M BaCl2, ~200 mM sulfide",923.3 mVolts
same,mVolts,"Volume 1.6 of 1.0M BaCl2, ~200 mM sulfide",922.5 mVolts
same,mVolts,"Volume 1.8 of 1.0M BaCl2, ~200 mM sulfide",921.5 mVolts
same,mVolts,"Volume 2.0 of 1.0M BaCl2, ~200 mM sulfide",920.9 mVolts
same,mVolts,"Volume 2.2 of 1.0M BaCl2, ~200 mM sulfide",920.5 mVolts
same,mVolts,"Volume 2.4 of 1.0M BaCl2, ~200 mM sulfide",920.0 mVolts
same,mVolts,"Volume 2.6 of 1.0M BaCl2, ~200 mM sulfide",919.7 mVolts
same,mVolts,"Volume 2.8 of 1.0M BaCl2, ~200 mM sulfide",918.8 mVolts
same,mVolts,"Volume 3.0 of 1.0M BaCl2, ~200 mM sulfide",918.1 mVolts
same,mVolts,"Volume 3.2 of 1.0M BaCl2, ~200 mM sulfide",917.7 mVolts
same,mVolts,"Volume 3.4 of 1.0M BaCl2, ~200 mM sulfide",917.2 mVolts
same,mVolts,"Volume 3.6 of 1.0M BaCl2, ~200 mM sulfide",916.7 mVolts
same,mVolts,"Volume 3.8 of 1.0M BaCl2, ~200 mM sulfide",916.0 mVolts
same,mVolts,"Volume 4.0 of 1.0M BaCl2, ~200 mM sulfide",915.6 mVolts
same,mVolts,"Volume 4.2 of 1.0M BaCl2, ~200 mM sulfide",915.0 mVolts
same,mVolts,"Volume 4.4 of 1.0M BaCl2, ~200 mM sulfide",914.8 mVolts
same,mVolts,"Volume 4.6 of 1.0M BaCl2, ~200 mM sulfide",914.4 mVolts
same,mVolts,"Volume 4.8 of 1.0M BaCl2, ~200 mM sulfide",913.9 mVolts
same,mVolts,"Volume 5.0 of 1.0M BaCl2, ~200 mM sulfide",913.6 mVolts
same,mVolts,"Volume 5.2 of 1.0M BaCl2, ~200 mM sulfide",913.0 mVolts
same,mVolts,"Volume 5.4 of 1.0M BaCl2, ~200 mM sulfide",913.0 mVolts
same,mVolts,"Volume 5.6 of 1.0M BaCl2, ~200 mM sulfide",912.7 mVolts
same,mVolts,"Volume 5.8 of 1.0M BaCl2, ~200 mM sulfide",912.0 mVolts
same,mVolts,"Volume 6.0 of 1.0M BaCl2, ~200 mM sulfide",911.7 mVolts
same,mVolts,"Volume 6.5 of 1.0M BaCl2, ~200 mM sulfide",910.7 mVolts
same,mVolts,"Volume 7.0 of 1.0M BaCl2, ~200 mM sulfide",910.8 mVolts
same,mVolts,"Volume 7.5 of 1.0M BaCl2, ~200 mM sulfide",909.5 mVolts
same,mVolts,"Volume 8.0 of 1.0M BaCl2, ~200 mM sulfide",908.3 mVolts
same,mVolts,"Volume 8.5 of 1.0M BaCl2, ~200 mM sulfide",907.4 mVolts
same,mVolts,"Volume 9.0 of 1.0M BaCl2, ~200 mM sulfide",906.8 mVolts
same,mVolts,"Volume 9.5 of 1.0M BaCl2, ~200 mM sulfide",905.7 mVolts
same,mVolts,"Volume 10.0 of 1.0M BaCl2, ~200 mM sulfide",905.0 mVolts
